From patent US20090215853A1, “Flavopereirine and alstonine combinations in the treatment and prevention of prostate cancer” (Natural Source International, priority 2004, published 2009)

Columns and labels:
LNCaP cells = assay: Induction of apoptosis in LNCaP cells (PARP cleavage, Caspase-3 activity); format: cell-based, human; conditions: 24 hours (FIG. 2)
normal DNA = conditions: Oncotest; cited from earlier work

Row | SMILES | apoptosis as determined by cleavage of PARP and induction of Caspase-3 (LNCaP cells) | effect on normal DNA (normal DNA)
1 | CCc1ccc2c3[nH]c4ccccc4c3cc[n+]2c1 [flavopereirine] | induction of apoptosis | no effect on normal DNA
2 | COC(=O)C1=CO[C@@H](C)[C@@H]2Cn3ccc4c5ccccc5nc-4c3C[C@H]12 [alstonine] | relatively minor effect | no effect on normal DNA
